Calls of active or inactive are those of the source. The rule behind the calls is not given here.
Target: Serine/threonine-protein phosphatase 5 (Homo sapiens) (UniProt P53041)
Assay: inhibition of PP5 cleaving OMFP – biochemical, fluorescence, single concentration, late-stage follow-up (AID 463222)
Details: PP5 OMFP dephosphorylation, at 6.7 µM, hits give high values

Sequence of Serine/threonine-protein phosphatase 5 (Homo sapiens) (P53041 whole entry, looked up): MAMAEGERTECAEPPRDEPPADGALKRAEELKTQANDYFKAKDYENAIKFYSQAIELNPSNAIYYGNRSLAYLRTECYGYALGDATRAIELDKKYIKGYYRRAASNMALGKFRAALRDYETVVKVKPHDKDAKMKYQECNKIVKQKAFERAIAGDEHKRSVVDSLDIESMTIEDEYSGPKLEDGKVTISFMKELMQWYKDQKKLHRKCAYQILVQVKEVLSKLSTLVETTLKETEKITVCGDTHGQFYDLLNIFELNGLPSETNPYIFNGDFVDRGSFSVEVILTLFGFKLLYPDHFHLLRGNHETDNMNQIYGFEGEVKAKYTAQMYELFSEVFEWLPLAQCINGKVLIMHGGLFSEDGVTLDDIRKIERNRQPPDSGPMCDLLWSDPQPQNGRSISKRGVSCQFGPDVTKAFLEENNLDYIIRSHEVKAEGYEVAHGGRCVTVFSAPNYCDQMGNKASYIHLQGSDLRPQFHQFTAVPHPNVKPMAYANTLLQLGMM

Q: For `COc1ccc2c(Cl)c(C(=O)N/N=C/c3ccc4c(c3)OCO4)sc2c1`, which inhibition is on record?
A: -2.37% (inactive)

Q: How did the inhibition turn out when `CCOC(=O)c1sc2nc3c(SCC(=O)O)cc(C(=O)c4cc(F)ccc4O)cn3c(=O)c2c1C` was run?
A: -0.13% (inactive)

Q: For `CCOC(=O)c1cnc(-n2nc(C)cc2C)nc1NCc1ccccc1`, which inhibition is on record?
A: 3.84% (inactive)

Q: Which inhibition does the source give for `O=C1CCCC2=C1C1(O)C(=O)c3ccccc3C1(O)O2` (stereo not given) here?
A: 9.53% (inactive)

Q: `Cc1ccc(C(=O)NC2(O)C(=O)c3ccccc3C2=O)cc1C` was tested. Which inhibition did it give?
A: 6.31% (inactive)

Q: With `N#Cc1c(-c2ccc(Cl)cc2)cc(-c2cccs2)nc1SCC(=O)O` as the compound, how does the inhibition read?
A: -2.49% (inactive)

Q: Which inhibition does the source give for `O=C(O)C1C2CCC(O2)C1C(=O)NC1CCCCC1` (stereo not given) here?
A: 42.5%

Q: How did the inhibition turn out when `O=C1Nc2ccccc2N2CCCC12` (stereo not given) was run?
A: -3.11% (inactive)

Q: With `O=C(O)c1n[nH]nc1-c1ccccc1` as the compound, how does the inhibition read?
A: 53.4%

Q: With `O=C(NC1(O)C(=O)c2ccccc2C1=O)c1c(Cl)cccc1Cl` as the compound, how does the inhibition read?
A: 8.39% (inactive)

Q: How did the inhibition turn out when `CCOC(=O)C1=C(C)OC2(O)c3ccccc3C(=O)C12O` (stereo not given) was run?
A: 11.2% (inactive)

Q: How did the inhibition turn out when `Clc1ccc(-n2nnnc2-c2cnc(-c3ccccn3)nc2-c2cccs2)cc1` was run?
A: -2.47% (inactive)

Q: How did the inhibition turn out when `CCn1c2ccccc2c2cc(NC(=O)COC(=O)c3ccc(NC(=O)CC#N)cc3)ccc21` was run?
A: -3.03% (inactive)

Q: With `COc1ccc(CN2C(=O)Cc3c2nc(N)c2c(N)nc(N4CCCCC4)c(C#N)c32)cc1` as the compound, how does the inhibition read?
A: 1.97% (inactive)

Q: How did the inhibition turn out when `O=S(=O)(Cc1cc(NCc2ccccc2)nc(-c2ccccn2)n1)c1ccccc1` was run?
A: 4.59% (inactive)

Q: How did the inhibition turn out when `Oc1ccccc1/C=N/Nc1cc(N2CCCC2)nc(N2CCCC2)n1` was run?
A: 7.43% (inactive)

Q: For `COc1ccc(C(=O)c2nccc3cc(OC)c(OC)cc23)cc1OC`, which inhibition is on record?
A: 2.42% (inactive)

Q: `CCOc1ccc(NC(=S)Nc2ccc3nsnc3c2)cc1` was tested. Which inhibition did it give?
A: 3.93% (inactive)

Q: How did the inhibition turn out when `CCOC(=O)c1cnc(-n2nc(C)cc2C)nc1NCCc1ccccc1` was run?
A: 6.83% (inactive)

Q: For `Cc1cc(C)c(S(=O)(=O)/N=C2\C=C(Sc3ncn[nH]3)C(=O)c3ccccc32)cc1C`, which inhibition is on record?
A: 4.08% (inactive)

Q: With `Cc1ccc(C(=O)NNc2cc(N3CCCC3)nc(N3CCCC3)n2)cc1` as the compound, how does the inhibition read?
A: 8.52% (inactive)

Q: `CCOC(=O)c1cnc(-n2cc(C)cn2)nc1NCc1ccc2c(c1)OCO2` was tested. Which inhibition did it give?
A: 2.2% (inactive)

Q: Which inhibition does the source give for `CC(=O)C(C(C)=O)C1(O)C(=O)c2ccccc2C1=O` here?
A: 6.75% (inactive)

Q: `c1ccc(Nc2nc(-c3ccccn3)cs2)cc1` was tested. Which inhibition did it give?
A: 2.82% (inactive)

Q: How did the inhibition turn out when `O=C(NC1(O)C(=O)c2ccccc2C1=O)c1ccccc1` was run?
A: 4.22% (inactive)

Q: How did the inhibition turn out when `COc1cnc(-c2ccccn2)nc1Sc1ccccc1Cl` was run?
A: 3.05% (inactive)

Q: For `Nc1nc(-c2ccccn2)nc(N)c1Cc1ccc(Cl)cc1Cl`, which inhibition is on record?
A: 2.71% (inactive)

Q: With `Oc1ccc(/C=N/Nc2cc(N3CCOCC3)nc(N3CCOCC3)n2)c(O)c1` as the compound, how does the inhibition read?
A: 11.4% (inactive)

Q: Which inhibition does the source give for `COc1cnc(-c2ccccn2)nc1Oc1cccc(Cl)c1` here?
A: 0.53% (inactive)

Q: How did the inhibition turn out when `Cc1ccc(-n2nc(C(=O)O)cc2-c2ccc(Cl)cc2)cc1` was run?
A: -5.42% (inactive)

Q: Which inhibition does the source give for `O=C(O)c1cc(-c2ccc(Cl)cc2)n(-c2cccc(Cl)c2)n1` here?
A: -5.16% (inactive)

Q: `COc1ccc(Cn2c(N)c(C(=O)NCc3ccco3)c3nc4ccccc4nc32)cc1OC` was tested. Which inhibition did it give?
A: 2.29% (inactive)

Q: How did the inhibition turn out when `COc1cnc(-c2ccccn2)nc1Sc1ccc(C)cc1` was run?
A: 2.23% (inactive)

Q: `COc1ccc(NC(=O)C2C3CCC(O3)C2C(=O)O)c(OC)c1` (stereo not given) was tested. Which inhibition did it give?
A: 51.1%

Q: `CCOC(=O)c1nn(-c2ccc(C)cc2)c(=O)c2c(N)scc12` was tested. Which inhibition did it give?
A: -0.12% (inactive)

Q: How did the inhibition turn out when `CCOC(=O)c1cnc(-n2nc(C)cc2C)nc1NC(C)c1ccccc1` (stereo not given) was run?
A: 5.83% (inactive)

Q: Which inhibition does the source give for `COc1cnc(-c2ccccn2)nc1Sc1ccc(Cl)cc1` here?
A: 4.61% (inactive)

Q: How did the inhibition turn out when `CC(C)(CS(=O)(=O)[O-])NC(=O)CC[N+](C)(C)CCO` was run?
A: 0.86% (inactive)

Q: For `O=C(NC1(O)C(=O)c2ccccc2C1=O)c1ccc(C(F)(F)F)cc1`, which inhibition is on record?
A: 11.6% (inactive)

Q: With `CCOC(=O)c1cnc(-n2nc(C)cc2C)nc1NC1CCCCC1` as the compound, how does the inhibition read?
A: 3.66% (inactive)

Q: How did the inhibition turn out when `COc1ccc(Sc2nc(-c3ccccn3)ncc2OC)cc1` was run?
A: 3.64% (inactive)

Q: How did the inhibition turn out when `CN1CCN(C(c2ccccn2)c2cc(Cl)c3cccnc3c2O)CC1` (stereo not given) was run?
A: 8.11% (inactive)

Q: Which inhibition does the source give for `CCCN(CC1CC1)c1nc(N)c2c(N)nc(OC)cc2c1C#N` here?
A: 2.08% (inactive)

Q: For `O=C(O)c1cc(-c2ccc(Cl)c(Cl)c2)n(-c2ccc(F)cc2)n1`, which inhibition is on record?
A: -3.2% (inactive)

Q: `Cc1nnc(NC(=O)C2C3C=CC(O3)C2C(=O)O)s1` (stereo not given) was tested. Which inhibition did it give?
A: 22.3%

Q: Which inhibition does the source give for `Cc1[nH]n(-c2ccccc2)c(=O)c1C(c1ccc([N+](=O)[O-])cc1)c1c(C)[nH]n(-c2ccccc2)c1=O` here?
A: -3.88% (inactive)

Q: For `COc1cc(Br)c(C(=O)c2nccc3cc(OC)c(OC)cc23)cc1OC`, which inhibition is on record?
A: 1.12% (inactive)

Q: Which inhibition does the source give for `CCOC(=O)c1sc(N2C(=O)C(O)=C(C(=O)c3ccco3)C2c2cccc([N+](=O)[O-])c2)nc1C` (stereo not given) here?
A: -2.08% (inactive)

Q: How did the inhibition turn out when `COc1ccccc1Sc1nc(-c2ccccn2)ncc1OC` was run?
A: -3.47% (inactive)

Q: With `COc1cnc(-c2ccccn2)nc1Sc1ccccc1` as the compound, how does the inhibition read?
A: 3.72% (inactive)

Q: Which inhibition does the source give for `CCCCN(CC)c1nc(N)c2c(N)nc(OCC)cc2c1C#N` here?
A: 0.32% (inactive)

Q: For `COc1cnc(-c2ccccn2)nc1Sc1cccc(Cl)c1`, which inhibition is on record?
A: 4.14% (inactive)

Q: `c1ccc(-c2nccc(-c3ccc(-n4cnc5ccccc54)cc3)n2)nc1` was tested. Which inhibition did it give?
A: 6.97% (inactive)

Q: With `COc1ccc(OCCCC(=O)Nc2nc(-c3ccccn3)cs2)cc1` as the compound, how does the inhibition read?
A: 5.93% (inactive)

Q: For `O=c1[nH]c(Nc2ccccc2)cc2ccccc12`, which inhibition is on record?
A: 4.67% (inactive)

Q: How did the inhibition turn out when `COc1ccc(Cl)cc1C(=O)Nc1cccc(-c2ccc3nncn3n2)c1` was run?
A: -0.16% (inactive)

Q: With `Oc1cccc(/C=N/Nc2cc(N3CCCC3)nc(N3CCCC3)n2)c1` as the compound, how does the inhibition read?
A: 9.26% (inactive)

Q: With `O=C(O)c1cc(-c2ccc(Cl)c(Cl)c2)n(-c2ccccc2)n1` as the compound, how does the inhibition read?
A: -2.01% (inactive)

Q: `CCCCn1c(NC(=O)c2ccco2)c(C(=O)OCC)c2nc3ccccc3nc21` was tested. Which inhibition did it give?
A: 2.48% (inactive)

Q: How did the inhibition turn out when `Nc1cc2nsnc2cc1Br` was run?
A: 0.76% (inactive)

Q: With `N#Cc1c(N2CCCC(O)C2)nc(N)c2c(N)nc3c(c12)CC(=O)N3C12CC3CC(CC(C3)C1)C2` (stereo not given) as the compound, how does the inhibition read?
A: 2.54% (inactive)

Q: How did the inhibition turn out when `COc1cnc(-c2ccccn2)nc1Sc1ccc(F)cc1` was run?
A: 5.48% (inactive)

Q: Which inhibition does the source give for `O=C(Nc1nc(-c2ccccn2)cs1)C1CC(=O)N(c2ccc3c(c2)OCCO3)C1` (stereo not given) here?
A: 2.9% (inactive)

Q: How did the inhibition turn out when `COc1ccc(NC(=S)Nc2ccc3nsnc3c2)cc1` was run?
A: 2.75% (inactive)

Q: How did the inhibition turn out when `COc1cnc(-c2ccccn2)nc1Oc1cccc(C(F)(F)F)c1` was run?
A: -5.73% (inactive)
